According to article doi:10.1101/2022.09.09.507370v4 (biorxiv, 2022):

Legend:
Format in all cases: biochemical
Settings in all cases: PS-liposome-stimulated (5.0 μM PS-liposomes), 20 nM enzyme, GTP, pH 7.4
[1] = system: Dyn3-His6
[2] = system: Dyn2-His6
[3] = system: Dyn1-His6

IC50 [1]: 7.8 ± 3 µM
IC50 [2]: 9.2 ± 2.5 µM
IC50 [3]: 8.1 ± 3.7 µM
Structure (SMILES): CCCCCCCCCCCCCC[N+](C)(C)C [MiTMAB]
